According to US12466803B2 (priority 2021, dated 2025):

Experiments:
obese ZSF1 rats = details: mean±SD
[1] = test system: phospho (S293) BCKDHA in human skeletal myocytes; experiment: Phospho BCKDHA Alpha Surefire Cell Assay; format: cell-based; details: Homo sapiens, 1 h, 60 minutes with compound, geometric mean

SMILES | IC50 [1] | further results
O=C(O)c1sc2cc(Cl)ccc2c1Cl [BT2] |  | kidney weights (obese ZSF1 rats; diet containing 1.36 g BT2/kg, after 4 additional weeks (8 weeks) of treatment): 2.09 ± 0.1 g; urine protein normalized to creatinine (obese ZSF1 rats; diet containing 1.36 g BT2/kg, after 4 weeks of treatment, BCA assay): 55.4±7.2 mg protein/mg creatinine; urine produced in 5 hour urine collection (obese ZSF1 rats; diet containing 1.36 g BT2/kg, after 4 weeks of treatment): 4.4 ± 2.7 mL; diabetic nephropathy score (obese ZSF1 rats; histology graded on a scale of 0-4, after 8 weeks of BT2 diet): 2.9±0.8
CCc1nccc(-c2c(C(=O)O)sc3cc(F)ccc23)c1F [Example 112, 3-(2-ethyl-3-fluoropyridin-4-yl)-6-fluoro-1-benzothiophene-2-carboxylic acid] | 2300 nM | 
COc1cc(-c2c(C(=O)O)sc3cc(F)ccc23)c(F)c(F)c1Cl [Example 114, 3-(4-chloro-2,3-difluoro-5-methoxyphenyl)-6-fluoro-1-benzothiophene-2-carboxylic acid] | 1800 nM | 
Cc1c(F)ccc(-c2c(C(=O)O)sc3cc(F)ccc23)c1F [Example 117, 3-(2,4-difluoro-3-methylphenyl)-6-fluoro-1-benzothiophene-2-carboxylic acid] | 120 nM | 
COc1ccc(F)c(-c2c(C(=O)O)sc3cc(Cl)ccc23)c1F [Example 129, 6-chloro-3-(2,6-difluoro-3-methoxyphenyl)-1-benzothiophene-2-carboxylic acid] | 1800 nM | 
O=C(O)c1sc2cc(Cl)ccc2c1-c1cc(Cl)c(F)cc1F [Example 132, ammonium 6-chloro-3-(5-chloro-2,4-difluorophenyl)-1-benzothiophene-2-carboxylate] | 470 nM | 
O=C(O)c1sc2cc(Cl)ccc2c1-c1cc(F)c(F)cc1F [Example 133, 6-chloro-3-(2,4,5-trifluorophenyl)-1-benzothiophene-2-carboxylic acid] | 730 nM | 
CCc1c(F)c(F)cc(-c2c(C(=O)O)sc3cc(Cl)ccc23)c1F [Example 134, 6-chloro-3-(3-ethyl-2,4,5-trifluorophenyl)-1-benzothiophene-2-carboxylic acid] | 80 nM | 
Cc1c(F)c(-c2c(C(=O)O)sc3cc(Cl)ccc23)cc(F)c1Cl [Example 136, ammonium 6-chloro-3-(4-chloro-2,5-difluoro-3-methylphenyl)-1-benzothiophene-2-carboxylate] | 120 nM | 
Cc1cc(-c2c(C(=O)O)sc3cc(Cl)ccc23)c(F)cc1F [Example 137, 6-chloro-3-(2,4-difluoro-5-methylphenyl)-1-benzothiophene-2-carboxylic acid] | 540 nM | 
COc1c(Cl)ccc(-c2c(C(=O)O)sc3cc(Cl)ccc23)c1F [Example 138, 6-chloro-3-(4-chloro-2-fluoro-3-methoxyphenyl)-1-benzothiophene-2-carboxylic acid] | 160 nM | 
O=C(O)c1sc2cc(F)ccc2c1-c1c(F)c(F)cc(F)c1F [Example 140, 6-fluoro-3-(2,3,5,6-tetrafluorophenyl)-1-benzothiophene-2-carboxylic acid] | 3800 nM | 
Cc1c(F)ccc(-c2c(C(=O)O)sc3cc(Cl)ccc23)c1F [Example 141, 6-chloro-3-(2,4-difluoro-3-methylphenyl)-1-benzothiophene-2-carboxylic acid] | 230 nM | 
CCc1c(F)ccc(-c2c(C(=O)O)sc3cc(Cl)ccc23)c1F [Example 143, 6-chloro-3-(3-ethyl-2,4-difluorophenyl)-1-benzothiophene-2-carboxylic acid] | 200 nM | 
Cc1c(Cl)ccc(-c2c(C(=O)O)sc3cc(Cl)ccc23)c1F [Example 146, 6-chloro-3-(4-chloro-2-fluoro-3-methylphenyl)-1-benzothiophene-2-carboxylic acid] | 110 nM | 
O=C(O)c1sc2cc(F)ccc2c1-c1ccc(F)c(C2CC2)c1F [Example 147, 3-(3-cyclopropyl-2,4-difluorophenyl)-6-fluoro-1-benzothiophene-2-carboxylic acid] | 190 nM | 
O=C(O)c1sc2cc(F)ccc2c1-c1c(F)cc(F)cc1Cl [Example 148, 3-(2-chloro-4,6-difluorophenyl)-6-fluoro-1-benzothiophene-2-carboxylic acid] | 4000 nM | 
O=C(O)c1sc2cc(Cl)ccc2c1-c1cc(F)c(F)c(F)c1F [Example 149, ammonium 6-chloro-3-(2,3,4,5-tetrafluorophenyl)-1-benzothiophene-2-carboxylate] | 950 nM | 
COc1ccc(Cl)c(-c2c(C(=O)O)sc3cc(F)ccc23)c1F [Example 150, 3-(6-chloro-2-fluoro-3-methoxyphenyl)-6-fluoro-1-benzothiophene-2-carboxylic acid] | 1100 nM | 
COc1c(F)cc(F)c(-c2c(C(=O)O)sc3cc(F)ccc23)c1Cl [Example 154, 3-(2-chloro-4,6-difluoro-3-methoxyphenyl)-6-fluoro-1-benzothiophene-2-carboxylic acid] | 4200 nM | 
COc1c(F)c(F)cc(-c2c(C(=O)O)sc3ccccc23)c1F [Example 157, 3-(2,4,5-trifluoro-3-methoxyphenyl)-1-benzothiophene-2-carboxylic acid] | 230 nM | 
